Data as given in ChEMBL document CHEMBL4411307, “N,N'-diaryl-bishydrazones in a biphenyl platform: Broad spectrum antifungal agents” (Eur J Med Chem, 2019).
≈ marks a conversion by molar mass, not a printed value. Calls of active or inactive are those of the source. The calls are words filed in the database; no cut-off is given here.

Columns and labels:
[1] = system: Candida albicans; test: Antifungal activity against fluconazole/ITC-resistant Candida albicans ATCC 10231 measured after 48 hrs by CLSI M27-A3 protocol based method; assay type: functional; settings: ATCC 10231, 48 h
[2] = system: Candida albicans; test: Antifungal activity against fluconazole/ITC-resistant Candida albicans ATCC 64124 measured after 48 hrs by CLSI M27-A3 protocol based method; assay type: functional; settings: ATCC 64124, 48 h
[3] = system: Candida albicans; test: Antifungal activity against fluconazole/ITC-susceptible Candida albicans ATCC MYA-2876 measured after 48 hrs by CLSI M27-A3 protocol based method; assay type: functional; settings: ATCC MYA-2876, 48 h
[4] = system: Candida albicans; test: Antifungal activity against fluconazole/ITC-resistant Candida albicans ATCC 90819 measured after 48 hrs by CLSI M27-A3 protocol based method; assay type: functional; settings: ATCC 90819, 48 h
[5] = system: Candida albicans; test: Antifungal activity against fluconazole/ITC-susceptible Candida albicans ATCC MYA-2310 measured after 48 hrs by CLSI M27-A3 protocol based method; assay type: functional; settings: ATCC MYA-2310, 48 h
[6] = system: Candida albicans; test: Antifungal activity against fluconazole/ITC-resistant Candida albicans ATCC MYA-1237 measured after 48 hrs by CLSI M27-A3 protocol based method; assay type: functional; settings: ATCC MYA-1237, 48 h
[7] = system: Candida albicans; test: Antifungal activity against fluconazole/ITC-resistant Candida albicans ATCC MYA-1003 measured after 48 hrs by CLSI M27-A3 protocol based method; assay type: functional; settings: ATCC MYA-1003, 48 h
[8] = system: Nakaseomyces glabratus; test: Antifungal activity against Candida glabrata ATCC 2001 measured after 48 hrs by CLSI M27-A3 protocol based method; assay type: functional; settings: CBS 138, 48 h
[9] = system: Pichia kudriavzevii; test: Antifungal activity against Candida krusei ATCC 6258 measured after 48 hrs by CLSI M27-A3 protocol based method; assay type: functional; settings: ATCC 6258, 48 h
[10] = system: Candida parapsilosis; test: Antifungal activity against Candida parapsilosis ATCC 22019 measured after 48 hrs by CLSI M27-A3 protocol based method; assay type: functional; settings: Lodderomyces parapsilosis, ATCC 22019, 48 h
[11] = system: Aspergillus flavus; test: Antifungal activity against Aspergillus flavus ATCC MYA-3631 measured after 48 hrs by CLSI M38-A2 protocol based method; assay type: functional; settings: ATCC MYA-3631, 48 h
[12] = system: Aspergillus nidulans; test: Antifungal activity against Aspergillus nidulans ATCC 38163 measured after 48 hrs by CLSI M38-A2 protocol based method; assay type: functional; settings: ATCC 38163, 48 h
[13] = system: Aspergillus terreus; test: Antifungal activity against Aspergillus terreus ATCC MYA-3633 measured after 48 hrs by CLSI M38-A2 protocol based method; assay type: functional; settings: ATCC MYA-3633, 48 h
[14] = system: A549; test: Cytotoxicity against human A549 cells after 24 hrs by resazurin based assay; assay type: cell-based; settings: a549, 24 h
[15] = system: BEAS-2B; test: Cytotoxicity against human BEAS2B cells after 24 hrs by resazurin based assay; assay type: cell-based
[16] = Hemolytic activity in mouse RBC at […] after 1 hr relative to control; assay type: ADME, cell-based, Erythrocyte; settings: red blood cells (erythrocytes), read-out: Activity; further: tested at 0.48 µg/mL
[17] = Hemolytic activity in mouse RBC at […] ug/ml after 1 hr relative to control; assay type: ADME, cell-based, Erythrocyte; settings: red blood cells (erythrocytes), read-out: Activity; for hemolysis at 1 h, 15.6 ug/ml: at 15.6 µg/mL
[18] = Hemolytic activity in mouse RBC at 1.95 ug/ml after 1 hr relative to control; assay type: ADME, cell-based, Erythrocyte; settings: red blood cells (erythrocytes), read-out: Activity
[19] = Hemolytic activity in mouse RBC at 3.9 ug/ml after 1 hr relative to control; assay type: ADME, cell-based, Erythrocyte; settings: red blood cells (erythrocytes), read-out: Activity
[20] = Hemolytic activity in mouse RBC at 7.8 ug/ml after 1 hr relative to control; assay type: ADME, cell-based, Erythrocyte; settings: red blood cells (erythrocytes), read-out: Activity
[21] = Hemolytic activity in mouse RBC at 31.3 ug/ml after 1 hr relative to control; assay type: ADME, cell-based, Erythrocyte; settings: red blood cells (erythrocytes), read-out: Activity
[22] = Hemolytic activity in mouse RBC at 62.5 ug/ml after 1 hr relative to control; assay type: ADME, cell-based, Erythrocyte; settings: red blood cells (erythrocytes), read-out: Activity
[23] = system: Listeria monocytogenes; test: Antibacterial activity against Listeria monocytogenes; assay type: functional, organism-based
[24] = system: Staphylococcus aureus; test: Antibacterial activity against methicillin-resistant Staphylococcus aureus; assay type: functional, organism-based
[25] = system: Enterococcus; test: Antibacterial activity against vancomycin-resistant Enterococcus; assay type: functional, organism-based
[26] = Selectivity index, ratio of CC50 for human A549 cells to MIC for fluconazole/ITC-resistant Candida albicans ATCC 10231; assay type: toxicity; settings: read-out: Selectivity Index
[27] = Selectivity index, ratio of CC50 for human A549 cells to MIC for fluconazole/ITC-resistant Candida albicans ATCC 64124; assay type: toxicity; settings: read-out: Selectivity Index
[28] = Selectivity index, ratio of CC50 for human A549 cells to MIC for fluconazole/ITC-susceptible Candida albicans ATCC MYA-2876; assay type: toxicity; settings: read-out: Selectivity Index
[29] = Selectivity index, ratio of CC50 for human A549 cells to MIC for fluconazole/ITC-resistant Candida albicans ATCC 90819; assay type: toxicity; settings: read-out: Selectivity Index
[30] = Selectivity index, ratio of CC50 for human A549 cells to MIC for fluconazole/ITC-susceptible Candida albicans ATCC MYA-2310; assay type: toxicity; settings: read-out: Selectivity Index
[31] = Selectivity index, ratio of CC50 for human A549 cells to MIC for fluconazole/ITC-resistant Candida albicans ATCC MYA-1237; assay type: toxicity; settings: read-out: Selectivity Index
[32] = Selectivity index, ratio of CC50 for human A549 cells to MIC for fluconazole/ITC-resistant Candida albicans ATCC MYA-1003; assay type: toxicity; settings: read-out: Selectivity Index
[33] = Selectivity index, ratio of CC50 for human A549 cells to MIC for Candida glabrata ATCC 2001; assay type: toxicity; settings: read-out: Selectivity Index
[34] = Selectivity index, ratio of CC50 for human A549 cells to MIC for Candida krusei ATCC 6258; assay type: toxicity; settings: read-out: Selectivity Index
[35] = Selectivity index, ratio of CC50 for human A549 cells to MIC for Candida parapsilosis ATCC 22019; assay type: toxicity; settings: read-out: Selectivity Index
[36] = Selectivity index, ratio of CC50 for human A549 cells to MIC for Aspergillus flavus ATCC MYA-3631; assay type: toxicity; settings: read-out: Selectivity Index
[37] = Selectivity index, ratio of CC50 for human A549 cells to MIC for Aspergillus nidulans ATCC 38163; assay type: toxicity; settings: read-out: Selectivity Index
[38] = Selectivity index, ratio of CC50 for human A549 cells to MIC for Aspergillus terreus ATCC MYA-3633; assay type: toxicity; settings: read-out: Selectivity Index

Structure (SMILES) | MIC [1] [µg/mL] | MIC [2] [µg/mL] | MIC [3] [µg/mL] | MIC [4] [µg/mL] | MIC [5] [µg/mL] | MIC [6] [µg/mL] | MIC [7] [µg/mL] | MIC [8] [µg/mL] | MIC [9] [µg/mL] | MIC [10] [µg/mL] | MIC [11] [µg/mL] | MIC [12] [µg/mL] | MIC [13] [µg/mL] | CC50 [14] [µg/mL] | CC50 [15] [µg/mL] | Activity [23] | Activity [24] | Activity [25] | other results
N=C(N)N/N=C/c1ccc(-c2cccc(/C=N/NC(=N)N)c2)cc1 | 1.95 to 3.9 (≈ 6.05 to 12.1 µM) | 3.9 (≈ 12.1 µM) | 3.9 (≈ 12.1 µM) | > 31.3 | 3.9 (≈ 12.1 µM) | 7.8 (≈ 24.2 µM) | > 31.3 | 3.9 (≈ 12.1 µM) | 1.95 (≈ 6.05 µM) | 1.95 (≈ 6.05 µM) | > 31.3 | 7.8 (≈ 24.2 µM) | 7.8 (≈ 24.2 µM) | 5.3 (≈ 16.4 µM) | 2.9 (≈ 9 µM) | – | – | – | hemolysis at 1 h, […] [16]: 0%; hemolysis at 1 h, 15.6 ug/ml [17]: 3.8%; hemolysis at 1 h, 0.975 ug/ml [17]: 0%; hemolysis at 1 h, 1.95 ug/ml [18]: 1.1%; hemolysis at 1 h, 3.9 ug/ml [19]: 1.2%; hemolysis at 1 h, 7.8 ug/ml [20]: 2.3%; hemolysis at 1 h, 31.3 ug/ml [21]: 3.8%; hemolysis at 1 h, 62.5 ug/ml [22]: 13.1%
Fc1ccccc1N/N=C/c1ccc(-c2cccc(/C=N/Nc3ccccc3F)c2)cc1 | 7.8 (≈ 18.3 µM) | 7.8 (≈ 18.3 µM) | > 31.3 | 15.6 (≈ 36.6 µM) | 31.3 (≈ 73.4 µM) | > 31.3 | 7.8 (≈ 18.3 µM) | > 31.3 | 1.95 (≈ 4.57 µM) | 15.6 (≈ 36.6 µM) | 3.9 (≈ 9.14 µM) | 7.8 (≈ 18.3 µM) | > 31.3 | 16.4 (≈ 38.5 µM) | > 31 | inactive | inactive | inactive | selectivity ratio [26]: 2.1; selectivity ratio [27]: 2.1; selectivity ratio [28]: 0.5; selectivity ratio [29]: 1.1; selectivity ratio [30]: 0.5; selectivity ratio [31]: 0.5; selectivity ratio [32]: 2.1; selectivity ratio [33]: 0.5; selectivity ratio [34]: 8.4; selectivity ratio [35]: 1.1; selectivity ratio [36]: > 4.2; selectivity ratio [37]: 2.1; selectivity ratio [38]: 0.5
Fc1cccc(N/N=C/c2ccc(-c3cccc(/C=N/Nc4cccc(F)c4)c3)cc2)c1 | 1.95 (≈ 4.57 µM) | > 31.3 | 7.8 (≈ 18.3 µM) | 15.6 (≈ 36.6 µM) | > 31.3 | 15.6 (≈ 36.6 µM) | 7.8 (≈ 18.3 µM) | > 31.3 | 1.95 (≈ 4.57 µM) | 31.3 (≈ 73.4 µM) | 3.9 (≈ 9.14 µM) | 7.8 (≈ 18.3 µM) | > 31.3 | 11.7 (≈ 27.4 µM) | 11.8 (≈ 27.7 µM) | inactive | inactive | inactive | selectivity ratio [26]: 6; selectivity ratio [27]: 0.4; selectivity ratio [28]: 1.5; selectivity ratio [29]: 0.8; selectivity ratio [30]: 0.4; selectivity ratio [31]: 0.8; selectivity ratio [32]: 1.5; selectivity ratio [33]: 0.4; selectivity ratio [34]: 6; selectivity ratio [35]: 0.4; selectivity ratio [37]: 1.5; selectivity ratio [38]: 0.4; hemolysis at 1 h, […] [16]: 0%; hemolysis at 1 h, 15.6 ug/ml [17]: 13.9%; hemolysis at 1 h, 0.975 ug/ml [17]: 4.6%; hemolysis at 1 h, 1.95 ug/ml [18]: 0.6%; hemolysis at 1 h, 3.9 ug/ml [19]: 2.5%; hemolysis at 1 h, 7.8 ug/ml [20]: 7.9%; hemolysis at 1 h, 31.3 ug/ml [21]: 32.6%; hemolysis at 1 h, 62.5 ug/ml [22]: 39.5%
Fc1cccc(N/N=C/c2ccc(-c3ccc(/C=N/Nc4cccc(F)c4F)cc3)cc2)c1F | 31.3 (≈ 67.7 µM) | > 31.3 | > 31.3 | > 31.3 | > 31.3 | > 31.3 | > 31.3 | > 31.3 | > 31.3 | > 31.3 | > 31.3 | > 31.3 | > 31.3 | – | – | inactive | inactive | inactive | –
CC(C)(C)N/N=C/c1ccc(-c2ccc(/C=N/NC(C)(C)C)cc2)cc1 | 31.3 (≈ 89.3 µM) | 31.3 (≈ 89.3 µM) | > 31.3 | > 31.3 | 31.3 (≈ 89.3 µM) | 31.3 (≈ 89.3 µM) | > 31.3 | 15.6 (≈ 44.5 µM) | 31.3 (≈ 89.3 µM) | > 31.3 | > 31.3 | 31.3 (≈ 89.3 µM) | > 31.3 | – | – | inactive | inactive | inactive | –
Brc1ccc(N/N=C/c2ccc(-c3ccc(/C=N/Nc4ccc(Br)cc4)cc3)cc2)cc1 | > 31.3 | > 31.3 | > 31.3 | > 31.3 | > 31.3 | > 31.3 | > 31.3 | > 31.3 | > 31.3 | 31.3 (≈ 57.1 µM) | > 31.3 | > 31.3 | > 31.3 | – | – | inactive | inactive | inactive | –
Clc1ccc(N/N=C/c2ccc(-c3ccc(/C=N/Nc4ccc(Cl)cc4)cc3)cc2)cc1 | > 31.3 | > 31.3 | > 31.3 | > 31.3 | > 31.3 | > 31.3 | > 31.3 | > 31.3 | 31.3 (≈ 68.1 µM) | 31.3 (≈ 68.1 µM) | > 31.3 | > 31.3 | 31.3 (≈ 68.1 µM) | – | – | inactive | inactive | inactive | –
Fc1ccc(N/N=C/c2ccc(-c3ccc(/C=N/Nc4ccc(F)cc4F)cc3)cc2)c(F)c1 | 7.8 (≈ 16.9 µM) | > 31.3 | > 31.3 | 31.3 (≈ 67.7 µM) | > 31.3 | > 31.3 | > 31.3 | > 31.3 | > 31.3 | > 31.3 | > 31.3 | > 31.3 | > 31.3 | – | – | inactive | inactive | inactive | –
